# In article PMC8626825 (Virology, 2021):
# Columns and labels:
# OC43 [1] = experiment: OC43 viral RNA accumulation in MRC5 cells; format: cell-based, human betacoronavirus (OC43); details: MRC5, OC43, 24 hpi
# SARS-CoV-2 [2] = experiment: SARS-CoV-2 RNA accumulation in MRC5-ACE2 cells; format: cell-based, SARS-CoV-2 isolate Hong Kong/VM20001061/2020
# [3] = cited from earlier work; for maximal accumulation in plasma: healthy patients given remdesivir, ref Jorgensen et al.; for maximal accumulation in plasma / concentration in bronchoalveolar aspirates: 2020; for concentration in bronchoalveolar aspirates: remdesivir treated COVID-19 patients, ref Pan et al.
# SARS-CoV-2 [4] = experiment: SARS-CoV-2-induced cytopathic effect in MRC5-ACE2 cells; format: cell-based
# SARS-CoV-2 N protein = SARS-CoV-2 N protein accumulation in MRC5-ACE2 cells; format: cell-based
# SARS-CoV-2 [5] = format: cell-based
# OC43 [6] = details: for effect of co-treatment on IC50 of remdesivir against OC43-induced CPE: co-treatment with remdesivir, 5 μM lapatinib or 10 μM doramapimod
# OC43 [7] = format: cell-based, human betacoronavirus (OC43); details: OC43, MRC5
# SARS-CoV-2 [8] = details: ref Dittmar et al., 2021; cited from earlier work
# SARS-CoV-2 [9] = details: SOLIDARITY trial, ref Pan et al., 2020; cited from earlier work
# 3CLpro [10] = details: 2020, cited from earlier work
# 3CLpro [11] = details: ref Ghahremanpour et al., 2020; cited from earlier work
# [12] = lapatinib, human patients, ref Spector et al., 2015
smiles,measurement,setting,value
C=CCNC1=C2C[C@@H](C)C[C@H](OC)[C@H](O)[C@@H](C)/C=C(\C)[C@H](OC(N)=O)[C@@H](OC)/C=C\C=C(/C)C(=O)NC(=CC1=O)C2=O [17-AAG],dose blocking OC43 viral RNA accumulation relative to remdesivir (fold less),OC43 [1],~10 fold
same,SARS-CoV-2 RNA accumulation,SARS-CoV-2 [2],only minimally reduced SARS-CoV-2 RNA accumulation
N#C[C@@]1(c2ccc3c(N)ncnn23)O[C@H](CO)[C@@H](O)[C@H]1O [GS-441524],maximal accumulation in plasma,[3],about 0.5 μM
same,concentration in bronchoalveolar aspirates,[3],~15 nM
Cc1ccc(-n2nc(C(C)(C)C)cc2NC(=O)Nc2ccc(OCCN3CCOCC3)c3ccccc23)cc1 [doramapimod],SARS-CoV-2 RNA accumulation,SARS-CoV-2 [2],able to block SARS-CoV-2 RNA accumulation at a low μM concentration
same,dose of remdesivir required to abolish SARS-CoV-2 RNA accumulation,SARS-CoV-2 [2],dramatically reduce the dose of remdesivir required
same,SARS-CoV-2-induced CPE,SARS-CoV-2 [4],blocked SARS-CoV-2-induced CPE
same,SARS-CoV-2 N protein accumulation,SARS-CoV-2 N protein,completely prevented SARS-CoV-2 N protein accumulation
same,dose of remdesivir required to abolish production of infectious virions,SARS-CoV-2 [5],dramatically reduce the dose of remdesivir required
same,effect of co-treatment on IC50 of remdesivir against OC43-induced CPE,OC43 [6],reduced the IC50 of remdesivir into the sub-μM range
C#Cc1cccc(Nc2ncnc3cc(OCCOC)c(OCCOC)cc23)c1 [erlotinib],identified as hit in the screen,OC43 [7],not identified
COc1cc2ncnc(Nc3ccc(F)c(Cl)c3)c2cc1OCCCN1CCOCC1 [gefitinib],identified as hit in the screen,OC43 [7],not identified
CCN(CCO)CCCC(C)Nc1ccnc2cc(Cl)ccc12 (stereo not drawn) [hydroxychloroquine],activity against SARS-CoV-2 in human lung epithelial cell lines,SARS-CoV-2 [8],ineffective
same,clinical effectiveness,SARS-CoV-2 [9],not clinically effective
CS(=O)(=O)CCNCc1ccc(-c2ccc3ncnc(Nc4ccc(OCc5cccc(F)c5)c(Cl)c4)c3c2)o1 [lapatinib],SARS-CoV-2 RNA accumulation,SARS-CoV-2 [2],dramatic reduction in viral RNA accumulation
same,dose of remdesivir required to abolish SARS-CoV-2 RNA accumulation,SARS-CoV-2 [2],dramatically reduce the dose of remdesivir required
same,inhibition of SARS-CoV-2 RNA replication,SARS-CoV-2 [2],"over 50,000 fold"
same,SARS-CoV-2-induced CPE,SARS-CoV-2 [4],blocked SARS-CoV-2-induced CPE
same,SARS-CoV-2 N protein accumulation,SARS-CoV-2 N protein,completely prevented SARS-CoV-2 N protein accumulation
same,dose of remdesivir required to abolish production of infectious virions,SARS-CoV-2 [5],dramatically reduce the dose of remdesivir required
same,concentration in tissue samples,[3]; [12],8000 to 12000 nM
same,plasma concentration in human patients,[3]; [12],1000 to 3000 nM
same,inhibition of 3CLpro activity,"3CLpro [10]; pre-print, ref Drayman et al.","could, in fact, inhibit the activity of 3CLpro"
same,inhibition of 3CLpro (experimental),3CLpro [10]; ref Ghahremanpour et al.,did not inhibit 3CLpro
same,in silico molecular docking result,3CLpro [11],"putative inhibitor of the SARS-CoV-2 protease, 3CLpro"
same,effect of co-treatment on IC50 of remdesivir against OC43-induced CPE,OC43 [6],reduced the IC50 of remdesivir into the sub-μM range
CCC(CC)COC(=O)[C@H](C)N[P@](=O)(OC[C@H]1O[C@@](C#N)(c2ccc3c(N)ncnn23)[C@H](O)[C@@H]1O)Oc1ccccc1 [remdesivir],maximal accumulation in plasma,[3],4 to 9 µM
same,concentration in bronchoalveolar aspirates,[3],not detectable
same,clinical effectiveness,SARS-CoV-2 [9],not clinically effective
same,IC50 of remdesivir against OC43-induced CPE,"OC43 [6]; remdesivir alone, MRC5",in the μM range
